What was measured:
Assay in all cases: relative viability (nuclei count vs DMSO), 5 days (fraction); higher = more cells survive
[1] = tested on: HCC-44
Outline: (§1)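 Values are medians from duplicate plates. Each reflects relative viability, defined as the nuclei count of treated wells over that of vehicle wells. Lung cancer cell lines in 1536-well plates were pin-tool dosed one day after seeding with one drug alone or with a fixed anchor-drug dose plus five library-drug doses (not always all listed) in √10 steps, then fixed, stained and imaged at 4× after 5 days.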

[2] = tested on: SK-MES-1
Outline: as §1

[3] = tested on: NCI-H441
Outline: as §1

[4] = tested on: 201T
Outline: as §1

[5] = tested on: NCI-H1975
Outline: as §1

[6] = tested on: EKVX
Outline: as §1

[7] = tested on: LK-2
Outline: as §1

[8] = tested on: COR-L 105
Outline: as §1

[9] = tested on: NCI-H1437
Outline: as §1

[10] = tested on: NCI-H596
Outline: as §1

[11] = tested on: NCI-H650
Outline: as §1

[12] = tested on: SW 900
Outline: as §1

[13] = tested on: NCI-H838
Outline: as §1

[14] = tested on: HCC-827
Outline: as §1

[15] = tested on: HCC-15
Outline: as §1

[16] = tested on: NCI-H1792
Outline: as §1

[17] = tested on: NCI-H23
Outline: as §1

[18] = tested on: A-427
Outline: as §1

[19] = tested on: BEN
Outline: as §1

[20] = tested on: HARA
Outline: as §1

[21] = tested on: NCI-H1666
Outline: as §1

[22] = tested on: COR-L23
Outline: as §1

[23] = tested on: NCI-H358
Outline: as §1

What does the source list for CC1(C)CCC(c2ccc(Cl)cc2)=C(CN2CCN(c3ccc(C(=O)NS(=O)(=O)c4ccc(N[C@H](CCN5CCOCC5)CSc5ccccc5)c(S(=O)(=O)C(F)(F)F)c4)cc3)CC2)C1 [Navitoclax] + CCNC(=O)c1noc(-c2cc(C(C)C)c(O)cc2O)c1-c1ccc(CN2CCOCC2)cc1 [Luminespib] (partner 0.01 µM)?
relative viability ([1]; first compound 0.05 µM): 1.33; relative viability ([1]; first compound 0.5 µM): 0.823; relative viability ([2]; first compound 0.005 µM): 0.665; relative viability ([2]; first compound 0.01581 µM): 0.985; relative viability ([2]; first compound 0.05 µM): 0.959; relative viability ([2]; first compound 0.1581 µM): 0.743; relative viability ([2]; first compound 0.5 µM): 0.856; relative viability ([3]; first compound 0.005 µM): 0.294; relative viability ([3]; first compound 0.01581 µM): 0.288; relative viability ([3]; first compound 0.05 µM): 0.42; relative viability ([3]; first compound 0.1581 µM): 0.351; relative viability ([3]; first compound 0.5 µM): 0.336; relative viability ([4]; first compound 0.005 µM): 1.05; relative viability ([4]; first compound 0.01581 µM): 1.1; relative viability ([4]; first compound 0.05 µM): 0.982; relative viability ([4]; first compound 0.1581 µM): 1.03; relative viability ([4]; first compound 0.5 µM): 1.08; relative viability ([5]; first compound 0.005 µM): 0.24; relative viability ([5]; first compound 0.01581 µM): 0.309; relative viability ([5]; first compound 0.05 µM): 0.191; relative viability ([5]; first compound 0.1581 µM): 0.118; relative viability ([5]; first compound 0.5 µM): 0.132; relative viability ([6]; first compound 0.005 µM): 0.94; relative viability ([6]; first compound 0.01581 µM): 1.01; relative viability ([6]; first compound 0.05 µM): 0.663; relative viability ([6]; first compound 0.1581 µM): 0.784; relative viability ([6]; first compound 0.5 µM): 0.785; relative viability ([7]; first compound 0.005 µM): 0.204; relative viability ([7]; first compound 0.01581 µM): 0.191; relative viability ([7]; first compound 0.05 µM): 0.202; relative viability ([7]; first compound 0.1581 µM): 0.191; relative viability ([7]; first compound 0.5 µM): 0.195; relative viability ([8]; first compound 0.005 µM): 0.801; relative viability ([8]; first compound 0.01581 µM): 1.2; relative viability ([8]; first compound 0.05 µM): 0.974; relative viability ([8]; first compound 0.1581 µM): 0.701; relative viability ([8]; first compound 0.5 µM): 0.544; relative viability ([9]; first compound 0.005 µM): 1.12; relative viability ([9]; first compound 0.01581 µM): 1.1; relative viability ([9]; first compound 0.05 µM): 1.09; relative viability ([9]; first compound 0.1581 µM): 1.14; relative viability ([9]; first compound 0.5 µM): 1.01; relative viability ([10]; first compound 0.005 µM): 0.34; relative viability ([10]; first compound 0.01581 µM): 1.14; relative viability ([10]; first compound 0.1581 µM): 0.867; relative viability ([10]; first compound 0.5 µM): 0.443; relative viability ([11]; first compound 0.005 µM): 0.794; relative viability ([11]; first compound 0.01581 µM): 0.862; relative viability ([11]; first compound 0.05 µM): 0.682; relative viability ([11]; first compound 0.1581 µM): 0.786; relative viability ([11]; first compound 0.5 µM): 0.827; relative viability ([12]; first compound 0.005 µM): 0.146; relative viability ([12]; first compound 0.01581 µM): 0.163; relative viability ([12]; first compound 0.05 µM): 0.177; relative viability ([12]; first compound 0.1581 µM): 0.199; relative viability ([12]; first compound 0.5 µM): 0.132; relative viability ([13]; first compound 0.005 µM): 0.344; relative viability ([13]; first compound 0.01581 µM): 0.438; relative viability ([13]; first compound 0.05 µM): 0.37; relative viability ([13]; first compound 0.1581 µM): 0.17; relative viability ([13]; first compound 0.5 µM): 0.239; relative viability ([14]; first compound 0.005 µM): 0.681; relative viability ([14]; first compound 0.01581 µM): 0.699; relative viability ([14]; first compound 0.05 µM): 0.49; relative viability ([14]; first compound 0.1581 µM): 0.58; relative viability ([14]; first compound 0.5 µM): 0.69; relative viability ([15]; first compound 0.005 µM): 0.299; relative viability ([15]; first compound 0.01581 µM): 0.284; relative viability ([15]; first compound 0.05 µM): 0.546; relative viability ([15]; first compound 0.1581 µM): 0.352; relative viability ([15]; first compound 0.5 µM): 0.256; relative viability ([16]; first compound 0.005 µM): 0.456; relative viability ([16]; first compound 0.01581 µM): 0.685; relative viability ([16]; first compound 0.05 µM): 0.351; relative viability ([16]; first compound 0.5 µM): 0.527; relative viability ([17]; first compound 0.005 µM): 0.223; relative viability ([17]; first compound 0.01581 µM): 0.218; relative viability ([17]; first compound 0.05 µM): 0.224; relative viability ([17]; first compound 0.1581 µM): 0.213; relative viability ([17]; first compound 0.5 µM): 0.209; relative viability ([18]; first compound 0.005 µM): 0.902; relative viability ([18]; first compound 0.01581 µM): 0.833; relative viability ([18]; first compound 0.05 µM): 0.804; relative viability ([18]; first compound 0.1581 µM): 0.908; relative viability ([18]; first compound 0.5 µM): 0.948; relative viability ([19]; first compound 0.005 µM): 0.269; relative viability ([19]; first compound 0.01581 µM): 0.271; relative viability ([19]; first compound 0.05 µM): 0.22; relative viability ([19]; first compound 0.1581 µM): 0.266; relative viability ([19]; first compound 0.5 µM): 0.0778; relative viability ([20]; first compound 0.005 µM): 0.941; relative viability ([20]; first compound 0.01581 µM): 0.678; relative viability ([20]; first compound 0.1581 µM): 0.562; relative viability ([20]; first compound 0.5 µM): 0.682; relative viability ([21]; first compound 0.005 µM): 0.881; relative viability ([21]; first compound 0.01581 µM): 0.969; relative viability ([21]; first compound 0.05 µM): 0.989; relative viability ([21]; first compound 0.1581 µM): 1.05; relative viability ([21]; first compound 0.5 µM): 1.05; relative viability ([22]; first compound 0.005 µM): 0.605; relative viability ([22]; first compound 0.01581 µM): 0.606; relative viability ([22]; first compound 0.05 µM): 0.738; relative viability ([22]; first compound 0.1581 µM): 0.595; relative viability ([22]; first compound 0.5 µM): 0.666; relative viability ([23]; first compound 0.005 µM): 0.418; relative viability ([23]; first compound 0.01581 µM): 0.325; relative viability ([23]; first compound 0.05 µM): 0.264; relative viability ([23]; first compound 0.1581 µM): 0.388; relative viability ([23]; first compound 0.5 µM): 0.242

Source: the supplement of paper PMC10307832
